Measurements as given in patent publication US11866430B2, “Naphthyridinone compounds useful as T cell activators” (priority 2018, dated 2024).
pIC50: −log10 of the molar value.

Tests used:
human DGKζ [1] = target: T1, human DGKζ (Homo sapiens (Human), UniProt Q13574); test: DGKζ assay (detergent/lipid micelle substrate); assay type: biochemical; settings: detergent/lipid micelle substrate; read-out: DGKζ IC50
In short: (§1)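 Enzymes were baculovirus/Sf9 full-length human DGKα or DGKζ with His tag. The substrate was PS/DAG in octyl glucoside micelles, in MOPS pH 7.5 buffer with NaCl, MgCl2, CaCl2 and DTT.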

human DGKα [2] = target: T2, human DGKα (Homo sapiens (Human), UniProt P23743); test: DGKα LIPGLO assay (extruded liposome substrate); assay type: biochemical
T2 sequence (P23743 other isoform, or with tags, fused parts or gaps): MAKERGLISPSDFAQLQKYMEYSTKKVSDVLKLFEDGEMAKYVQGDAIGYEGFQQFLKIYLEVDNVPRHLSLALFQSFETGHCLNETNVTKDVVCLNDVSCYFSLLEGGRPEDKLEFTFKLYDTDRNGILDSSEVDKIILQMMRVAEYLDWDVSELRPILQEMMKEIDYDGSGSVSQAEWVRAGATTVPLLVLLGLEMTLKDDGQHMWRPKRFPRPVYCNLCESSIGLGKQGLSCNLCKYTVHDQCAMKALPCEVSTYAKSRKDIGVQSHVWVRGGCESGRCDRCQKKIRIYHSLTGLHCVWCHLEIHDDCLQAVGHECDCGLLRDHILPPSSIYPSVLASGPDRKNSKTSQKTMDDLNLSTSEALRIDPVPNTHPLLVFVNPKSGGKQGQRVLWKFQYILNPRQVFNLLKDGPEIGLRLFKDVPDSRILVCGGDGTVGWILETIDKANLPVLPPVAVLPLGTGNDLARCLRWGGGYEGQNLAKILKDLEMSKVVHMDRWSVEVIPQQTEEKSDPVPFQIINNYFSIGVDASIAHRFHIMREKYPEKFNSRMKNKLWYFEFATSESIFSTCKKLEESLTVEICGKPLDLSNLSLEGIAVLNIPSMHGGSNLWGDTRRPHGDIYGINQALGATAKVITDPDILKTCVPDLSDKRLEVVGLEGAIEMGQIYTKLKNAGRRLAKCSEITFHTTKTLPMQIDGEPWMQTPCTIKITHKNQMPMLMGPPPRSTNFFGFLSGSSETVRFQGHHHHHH
In short: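 Human full-length DGKα, His-tagged and produced in Sf9 cells, assayed at 20 nM (4× stock) on extruded liposomes of PS, 0.25 mM DAG and 2.75 mM PC, preincubated 10 min. Reaction started with 300 μM ATP (stock) and ran 1 h in MOPS pH 7.5/MgCl2/CaCl2/DTT buffer.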

human DGKζ [3] = target: T1, human DGKζ; test: DGKζ LIPGLO assay (extruded liposome substrate); assay type: biochemical; settings: extruded liposome substrate; read-out: DGKζ LIPGLO IC50
In short: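 Recombinant DGKζ (Sf9-expressed, Ni/SEC/SP-purified) preincubated 10 min with extruded 100 nm PC/DAG/PS liposomes in 50 mM MOPS pH 7.5, 100 mM NaCl, 10 mM MgCl2, 1 μM CaCl2, 1 mM DTT. Started with 300 uM ATP solution (stock, pre-addition); 1 hr reaction. ADP-Glo luminescence; IC50 from 11 concentrations.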

human DGKα [4] = target: T2, human DGKα; test: biochemical; settings: detergent/lipid micelle substrate; read-out: DGKα IC50
In short: as §1

[5] = test system: pre-activated CD4 T cells and Raji cells; test: Raji CD4 T Cell IL2 Assay; assay type: cell-based; settings: Homo sapiens, Raji

T1 sequence (Q13574 other isoform, or with tags, fused parts or gaps): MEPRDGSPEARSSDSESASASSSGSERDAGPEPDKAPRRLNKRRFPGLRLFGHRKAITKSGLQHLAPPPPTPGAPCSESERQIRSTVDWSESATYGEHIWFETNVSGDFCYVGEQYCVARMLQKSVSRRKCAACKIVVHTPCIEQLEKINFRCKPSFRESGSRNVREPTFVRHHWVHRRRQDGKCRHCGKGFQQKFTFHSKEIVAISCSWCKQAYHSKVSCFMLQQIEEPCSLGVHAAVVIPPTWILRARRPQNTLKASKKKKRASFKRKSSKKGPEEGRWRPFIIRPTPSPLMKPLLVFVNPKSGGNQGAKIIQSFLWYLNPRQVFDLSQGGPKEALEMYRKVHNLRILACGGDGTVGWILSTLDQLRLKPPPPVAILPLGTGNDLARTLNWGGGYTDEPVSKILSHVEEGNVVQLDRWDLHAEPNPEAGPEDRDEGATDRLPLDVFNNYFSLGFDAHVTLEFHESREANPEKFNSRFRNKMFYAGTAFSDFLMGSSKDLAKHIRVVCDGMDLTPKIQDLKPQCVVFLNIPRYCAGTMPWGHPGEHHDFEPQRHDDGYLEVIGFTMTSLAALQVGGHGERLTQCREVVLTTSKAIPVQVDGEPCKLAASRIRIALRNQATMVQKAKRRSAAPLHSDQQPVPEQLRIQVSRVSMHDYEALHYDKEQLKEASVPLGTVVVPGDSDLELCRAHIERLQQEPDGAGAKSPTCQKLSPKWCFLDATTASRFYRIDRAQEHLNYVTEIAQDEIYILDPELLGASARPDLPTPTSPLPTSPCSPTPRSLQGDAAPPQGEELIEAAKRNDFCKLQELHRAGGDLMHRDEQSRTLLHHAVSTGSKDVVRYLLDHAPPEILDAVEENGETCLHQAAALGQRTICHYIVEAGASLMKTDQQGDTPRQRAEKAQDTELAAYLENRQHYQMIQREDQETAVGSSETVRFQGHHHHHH

Row | Structure (SMILES) | pIC50 (human DGKζ [1]) | pIC50 (human DGKα [2]) | pIC50 (human DGKζ [3]) | pIC50 (human DGKα [4]) | pIC50 [5]
1 | Cc1ccc(O)c(CN2CCN(c3c(C#N)c(=O)n(C)c4ccc(Cl)nc34)CC2)c1 [Example 283, 6-chloro-4-{4-[(2-hydroxy-5-methylphenyl)methyl]piperazin-1-yl}-1-methyl-2-oxo-1,2-dihydro-1,5-naphthyridine-3-carbonitrile] | 4.57 | 6.68 | 5.52 | 6.92 | 7.03
2 | Cn1c(=O)c(C#N)c(N2CCN(Cc3ccc(F)cc3Cl)CC2)c2nc(Cl)ccc21 [Example 287, 6-chloro-4-{4-[(2-chloro-4-fluorophenyl)methyl]piperazin-1-yl}-1-methyl-2-oxo-1,2-dihydro-1,5-naphthyridine-3-carbonitrile] | < 3.62 | 4.74 | 4.54 | 5.68 | 7.00
3 | Cn1c(=O)c(C#N)c(N2CCN(Cc3ccc(Cl)cc3O)CC2)c2nc(Cl)ccc21 [Example 288, 6-chloro-4-{4-[(4-chloro-2-hydroxyphenyl)methyl]piperazin-1-yl}-methyl-2-oxo-1,2-dihydro-1,5-naphthyridine-3-carbonitrile] | < 3.62 | 7.48 | 5.64 | 7.43 | 7.00
4 | Cc1cccc(O)c1CN1CCN(c2c(C#N)c(=O)n(C)c3ccc(Cl)nc23)CC1 [Example 292, 6-chloro-4-{4-[(2-hydroxy-6-methylphenyl)methyl]piperazin-1-yl}-1-methyl-2-oxo-1,2-dihydro-1,5-naphthyridine-3-carbonitrile] | 4.60 | 6.32 | 5.62 | 6.57 | 6.96
5 | Cn1c(=O)c(C#N)c(N2CCN(Cc3cccc(Cl)c3O)CC2)c2nc(Cl)ccc21 [Example 293, 6-chloro-4-{4-[(3-chloro-2-hydroxyphenyl)methyl]piperazin-1-yl}-1-methyl-2-oxo-1,2-dihydro-1,5-naphthyridine-3-carbonitrile] | 4.24 | 6.22 | 5.22 | 6.57 | 6.96
6 | COc1ccc(CN2CCN(c3c(C#N)c(=O)n(C)c4ccc(Br)nc34)CC2)c(O)c1 [Example 295, 6-bromo-4-{4-[(2-hydroxy-4-methoxyphenyl)methyl]piperazin-1-yl}-1-methy-2-oxo-1,2-dihydro-1,5-naphthyridine-3-carbonitrile] | 4.26 | 6.80 | 5.16 | 6.89 | 6.85
7 | Cn1c(=O)c(C#N)c(N2CCN(Cc3ccccc3Cl)CC2)c2nc(Br)ccc21 [Example 300, 6-bromo-4-{4-[(2-chlorophenyl)methyl]piperazin-1-yl}-1-methyl-2-oxo-1,2-dihydro-1,5-naphthyridine-3-carbonitrile] | < 3.62 | 4.62 | 4.01 | 5.70 | 6.80
8 | Cn1c(=O)c(C#N)c(N2CCN(Cc3cccc(F)c3O)CC2)c2nc(Br)ccc21 [Example 304, 6-bromo-4-{4-[(3-fluoro-2-hydroxyphenyl)methyl]piperazin-1-yl}-1-methyl-2-oxo-1,2-dihydro-1,5-naphthyridine-3-carbonitrile] | 4.17 | 6.21 | 5.24 | 6.48 | 6.72
9 | COc1ccc(O)c(CN2CCN(c3c(C#N)c(=O)n(C)c4ccc(Cl)nc34)CC2)c1 [Example 305, 6-chloro-4-{4-[(2-hydroxy-5-methoxyphenyl)methyl]piperazin-1-yl}-1-methyl-2-oxo-1,2-dihydro-1,5-naphthyridine-3-carbonitrile] | 4.21 | 6.31 | 5.12 | 6.89 | 6.68
10 | Cn1c(=O)c(C#N)c(N2CCN(Cc3cc(F)ccc3O)CC2)c2nc(Cl)ccc21 [Example 312, 6-chloro-4-{4-[(5-fluoro-2-hydroxyphenyl)methyl]piperazin-1-yl}-1-methyl-2-oxo-1,2-dihydro-1,5-naphthyridine-3-carbonitrile] | < 3.62 | 6.66 | 4.80 | 6.92 | 6.62
11 | Cn1c(=O)c(C#N)c(N2CCN(Cc3cc(F)cc(C(F)(F)F)c3)CC2)c2nc(Cl)ccc21 [Example 313, 6-chloro-4-(4-{[3-fluoro-5-(trifluoromethyl)phenyl]methyl}piperazin-1-yl)-1-methyl-2-oxo-1,2-dihydro-1,5-naphthyridine-3-carbonitrile] | < 4.09 | 4.77 | 4.21 | 5.82 | 6.60
12 | Cn1c(=O)c(C#N)c(N2CCN(Cc3cccc(F)c3)CC2)c2nc(Cl)ccc21 [Example 321, 6-chloro-4-{4-[(3-fluorophenyl)methyl]piperazin-1-yl}-1-methyl-2-oxo-1,2-dihydro-1,5-naphthyridine-3-carbonitrile] | < 3.62 | 6.47 | 4.92 | 6.80 | 6.51
13 | Cn1c(=O)c(C#N)c(N2CCN(Cc3ccc(Cl)c(O)c3)CC2)c2nc(Cl)ccc21 [Example 323, 6-chloro-4-{4-[(4-chloro-3-hydroxyphenyl)methyl]piperazin-1-yl}-1-methyl-2-oxo-1,2-dihydro-1,5-naphthyridine-3-carbonitrile] | 4.96 | 5.92 | 4.57 | 6.85 | 6.47
14 | Cc1ccc2c(n1)c(N1CCN(Cc3cccc(F)c3O)CC1)c(C#N)c(=O)n2C [Example 329, 4-{4-[(3-fluoro-2-hydroxyphenyl)methyl]piperazin-1-yl}-1,6-dimethyl-2-oxo-1,2-dihydro-1,5-naphthyridine-3-carbonitrile] | 4.52 | 5.25 | 4.31 | 6.25 | 6.33
15 | Cn1c(=O)c(C#N)c(N2CCN(Cc3ccc(Cl)c(O)c3)CC2)c2nc(C#N)ccc21 [Example 332, 8-{4-[(4-chloro-3-hydroxyphenyl)methyl]piperazin-1-yl}-5-methyl-6-oxo-5,6-dihydro-1,5-naphthyridine-2,7-dicarbonitrile] | 4.17 | 5.60 | 5.19 | 5.96 | 6.28
16 | COc1cccc(F)c1CN1CCN(c2c(C#N)c(=O)n(C)c3ccc(Cl)nc23)CC1 [Example 335, 6-chloro-4-{4-[(2-fluor-6-methoxyphenyl)methyl]piperazin-1-yl}-1-methyl-2-oxo-1,2-dihydro-1,5-naphthyridine-3-carbonitrile] | < 3.62 | 5.72 | 4.74 | 5.57 | 6.27
17 | Cn1c(=O)c(C#N)c(N2CCN(Cc3cc(O)cc(F)c3)CC2)c2nc(Cl)ccc21 [Example 338, 6-chloro-4-{4-[(3-fluoro-5-hydroxyphenyl)methyl]piperazin-1-yl}-1-methyl-2-oxo-1,2-dihydro-1,5-naphthyridine-3-carbonitrile] | < 3.62 | 5.29 | 4.18 | 5.96 | 6.24
18 | Cn1c(=O)c(C#N)c(N2CCN(Cc3cc(C#N)ccc3F)CC2)c2nc(Cl)ccc21 [Example 340, 6-chloro-4-{4-[(5-cyano-2-fluoro-phenyl)methyl]piperazin-1-yl}-1-methyl-2-oxo-1,2-dihydro-1,5-naphthyridine-3-carbonitrile] | < 3.62 | 5.47 | 4.77 | 5.38 | 6.16
19 | Cn1c(=O)c(C#N)c(N2CCN(Cc3ccc(O)c(F)c3)CC2)c2nc(Cl)ccc21 [Example 357, 6-chloro-4-{4-[(3-fluoro-4-hydroxyphenyl)methyl]piperazin-1-yl}-1-methyl-2-oxo-1,2-dihydro-1,5-naphthyridine-3-carbonitrile] | < 3.62 | 7.07 | 4.33 | 7.55 | 5.30
20 | Cc1cccc(Cl)c1CN1CCN(c2c(C#N)c(=O)n(C)c3ccc(Cl)nc23)CC1 [Example 419, 6-chloro-4-{4-[(2-chloro-6-methylphenyl)methyl]piperazin-1-yl}-1-methyl-2-oxo-1,2-dihydro-1,5-naphthyridine-3-carbonitrile] | < 4.09 | 4.31 | 4.82 | 4.09 | 6.54
